Molecules are shown by their SMILES. Where two headings read alike, the source gives them in different places.

The test system of one data set is SCD1. Briefly: SCD1 protein, Western blot. The class given is cell-based, human. The conditions noted are these: 50 nM, 48 h, HT29. Here is the method:
(§1) HT29 cells were seeded at a density of 5.0 × 10^4 cells/cm^2 in a Petri dish and treated with 50 nM of compound 4 for 48 h. Cells were then washed with PBS and incubated with the lysis buffer radio immunoprecipitation assay (RIPA) at 4 °C for 15 min with agitation. The proteins were quantified using the Bio-Rad protein assay (Bio-Rad, Hercules, CA, USA) and analyzed by SDS-PAGE and Western blot.
(§2) For the analysis of protein phosphorylation, protein samples (30 μg) were separated on 12% SDS-PAGE in Tris-glycine buffer by electrophoresis at 200 V for 1 h. […] Densitometric analysis was performed with ImageLab 6.1 software (Bio-Rad, Hercules, CA, USA), and bands were normalized to the respective total protein content. For SCD1 analysis, protein samples were resolved on a 10% gel in MOPS buffer at 200 V for 45 min. After electrophoresis and Western blot, the nitrocellulose membrane was incubated overnight at 4 °C with primary antibody anti-SCD1 (Biorbyt, Durham, NC, USA) diluted in PBS-TWEEN 20 0.1%. The membrane was incubated for 1 h with a secondary horseradish peroxidase-conjugated antibody (GE Healthcare, Chicago, IL, USA) and then detected as described above. Quantification was completed by a Fluor-S Max MultiImager (Bio-Rad, Hercules, CA, USA) using a β-tubulin signal as a control.

In data set [1] the test system is HT29 cells. The experiment in a line: ROS assay (DClFDA staining). The class given is cell-based, human. The conditions noted are these: 24 h treatment. Here is the method: ROS were detected by DClFDA staining. This probe is not fluorescent and is permeable to alive cells, where the acetometoxyesther is cleaved by the […] intracellular estherases. This product is made fluorescent by the concomitant action of ROS, which peroxidize the molecule. The intensity of the fluorescence is, therefore, proportional to the production of intracellular ROS. HT29 cells were grown on a 96-well black plate, treated for 24 h with 4, washed in Hanks’ buffer, stained with 2 µM DClFDA, and incubated at 37 °C in the dark for 30 min. Negative controls were treated in the same way, but DClFDA was not added to these samples. The cells were washed in fresh Hanks’ buffer and resuspended in Hanks’ buffer containing Hoechst 33342 1 µg/mL to stain cell nuclei, to evaluate the cell density in the wells. The fluorescences were read with the plate reader Ensight (Perkin Elmer, Waltham, MA, USA) with excitation wavelengths, respectively, 488 nm for DClF and 360 nm for Hoechst and emission wavelength 535 nm for DClF and 454 for Hoechst 33342. The intensity of DClF fluorescence was normalized on Hoechst fluorescence and is expressed in Arbitrary Units (AU).

For data set [2], the system named is HT29 cells. Briefly: Cell cycle analysis by flow cytometry (PI). The class given is cell-based, human. Conditions: 50 nM, 24 h. As for the experimental part:
HT29 cells were treated with compound 4 for 24 h and then detached with 0.11% trypsin/0.02% ethylenediaminetetraacetic acid (EDTA) (Sigma-Aldrich, St. Louis, MO, USA), washed in PBS, and centrifuged. Cells were stained and analyzed according to […] al..
(In general: Flow cytometry measures light scatter and fluorescence of single cells or particles in a stream.)

Data set [3] concerns human tumor cell lines (HT29, MCF-7, HeLa, U2OS, and J6). Briefly: Antiproliferative activity in the series of human tumor cell lines. The conditions noted are these: MTT; concentration range of 10–500 nM. The class given is cell-based. Here is the method:
(§3) The human colorectal adenocarcinoma (Caco-2), human colorectal adenocarcinoma (HT29), normal human intestinal (I407), human cervical cancer (HeLa), human breast cancer (MCF7), human bone osteosarcoma (U2OS), and human acute T-cell leukemia (Jurkat J6) cell lines were purchased from American Type Culture Collection (ATCC, Manassas, VA, USA). Cells were cultured in RPMI 1640 medium (Labtek Eurobio, Milan, Italy), supplemented with 10% FCS (Euroclone, Milano, Italy) and 2 mM L-glutamine (Sigma-Aldrich, Milano, Italy), at 37 °C and in a 5% CO2 atmosphere. The compounds were dissolved in DMSO in a 30–40 mM stock solution. In cell treatments, the final DMSO concentration never exceeded 0.1%.
(§4) Cells were seeded in a 96-well culture plastic plate (Sarsted, Milan, Italy), at 5 × 10^4 cells/well and, after 24 h, were exposed to increasing concentrations of the different compounds (from 1 nM to 500 nM) dissolved in RPMI 1640 medium. An MTT assay was performed according to Micheletti et al..
(§5) The absorbance at 570 nm was measured using a multi-well plate reader (Tecan, Männedorf, Switzerland), and data were analyzed by Prism GraphPad 8 software and expressed as IC50 nM.

The test system of data set [4] is HT29 cells. Briefly: Cellular content of total magnesium (DCHQ5 assay). The class given is cell-based, human. The conditions noted are these: 24 h treatment. As for the experimental part: To evaluate the total magnesium, the fluorimetric DCHQ5 assay was performed according to Nature Protocol. Briefly, the cells were washed in PBS without Mg and Ca three times, accurately counted, and sonicated at 100 W. A standard curve was prepared with a concentration of MgCl2 between 0.5 and 5 µM in buffer MOPS 2 mM in 50% MetOH. The fluorescent probe DCHQ5 15 µM was added, and the fluorescence was recorded on a PTI Quanta Master C60/2000 spectrofluorometer (Photon Technology International, Inc., Birmingham, NJ, USA). A total of 200 µL of the samples was diluted in the MOPS MetOH buffer, DCHQ5 15 µM was added, and the fluorescence was recorded. The amount of Mg was evaluated by interpolating the fluorescence of the sample with respect to the standard curve expressed as nmoles of magnesium/10^6 cells.

The next data set relates to Caco-2. Briefly: MTT assay, Caco-2 cells. The class given is cell-based, human. Conditions: Homo sapiens, MTT after 24 h of treatment, means of four experiments. As for the experimental part: as §3, §4, §5
The next data set in a line: MTT assay, Caco-2 cells. The class given is cell-based, human. Conditions: human, versus normal I407 cells, read-out: S.I. (Selective Index), Caco-2. Here is the method: as §3, §4, §5
(In general: Tetrazolium assays rely on reduction of a dye to a coloured formazan, in cell work by metabolically active cells.)

A further data set relates to HeLa. The experiment in a line: MTT assay, HeLa cells. The class given is cell-based. Conditions: Homo sapiens, means of four experiments, na = not active, read-out: In vitro cytotoxic activity (IC50), HeLa. As for the experimental part:
as §3, §4, §5

The test system of data set [5] is HT29 cells. Briefly: Western blot of tyrosine residue phosphorylation. The class given is cell-based, human. The conditions noted are these: most at proteins above 50 KDa. Here is the method:
as §1, §2
A general note: In western blotting, separated proteins are transferred to a membrane and probed.

The next data set relates to HT29. Briefly: MTT assay, HT29 cells. The class given is cell-based, human. The conditions noted are these: for IC50: Homo sapiens, HT-29, means of four experiments. Here is the method: as §3, §4, §5

For the compound `CCCCCCCCC[C@H](CCCCCCCC(=O)O)O[Si](C)(C)C(C)(C)C` [Compound 4, (R)-9-((tert-butyldimethylsilyl)oxy)octadecanoic acid], the SCD1 protein amount result in the data set on SCD1 is given as “decrease in the amount of its protein product”. Besides, the “change in ROS content” value in the data set with HT29 cells [1] was “does not lead to a change”. The “decrease in G2/M phase” value in the data set with HT29 cells [2] amounted to 80.3 ± 6.1%. The “decrease in S phase” value in the data set on HT29 cells [2] was determined as 66.4 ± 8.9%. Besides, the “increase in the G0/G1 phase” value in the data set on HT29 cells [2] was 41.8 ± 0.2%. Moreover, the “antitumor activity across all cell lines tested” value in [3] is on record as “showed antitumor activity”. Moreover, the “reduction in the Mg content” value with HT29 cells [4] is −40%. In addition, the IC50 (in general, the concentration needed to halve the response being measured) in the data set on Caco-2 was determined as 23.39 ± 0.12 nM; with HeLa it was 166.1 ± 0.33 nM; with HT29 (MTT after 24 h of treatment, read-out: IC50 nM, HT29 (Table 2)) it was 20.9 ± 0.21 nM; with HT29 (MTT, na = not active, read-out: In vitro cytotoxic activity (IC50), HT29) it was 20.3 ± 0.24 nM. In addition, in the data set “MTT assay, Caco-2 cells”, the selectivity ratio was 2.65. The “phosphorylation levels at tyrosine residues of proteins” value with HT29 cells [5] is given as “decrease in phosphorylation levels”. The “S.I. (Selective Index), HT29” value in the data set on HT29 (versus normal I407 cells) was found to be 2.96.

Source of the values: paper PMC11820896, “New Compounds with Enhanced Biological Activity Through the Strategic Introduction of Silylated Groups into Hydroxystearic Acids” (Molecules, 2025).
